From US8618286B2, “Benzoxazines, benzothiazines, and related compounds having NOS inhibitory activity” (NeurAxon, Inc., priority 2008, dated 2013)

Target: Nitric oxide synthase (endothelial, human recombinant) eNOS (Homo sapiens (Human), UniProt P29474)
Assay: Human eNOS enzyme assay ([3H]-L-arginine to L-citrulline conversion)
Format: biochemical
Experimental: nNOS (Human), eNOS (Human) and iNOS (Human) Enzyme Assay
Primary stock solutions of test compounds at a concentration of 6 mM were prepared from the 2 to 5 mg powder. The primary stock solutions of each test compound were prepared freshly in distilled water on the day of study to obtain a final concentration of 6 mM. For determination of IC50 values, 12 test compound concentrations were prepared as 3-fold serial dilutions. Concentration range of test compound utilized for nNOS were 0.001 to 300 μM and for eNOS were 0.003 to 1000 μM. The vehicle of the test compound or inhibitor was used as blank control. For non-specific activity, 100 μM L-NMMA was used. Runs using the IC50 concentration of L-NAME were done in parallel as controls.
All incubations are performed in duplicate
The reaction mixture was prepared on ice by adding the following components with a micropipette to a polypropylene microcentrifuge tube: • 10 μL of test compound, inhibitor or control (vehicle or L-NMMA) solution; • 25 μL of Reaction Buffer {25 mM Tris-HCl, 0.6 μM BH4, 0.2 μM FMN, 0.2 μM FAD}; • 5 μL of 10 mM NADPH solution {1 mM} (freshly prepared in 10 mM Tris-HCl (pH 7.4); • 5 μL of 6 mM CaCl2 {600 W}; • 5 μL of 1 mM Calmodulin {100 W}; and • 5 μL of 0.02 μg/μL nNOS or 0.12 μg/μL eNOS.
The above reaction mixture was pre-incubated at room temperature for 15 mins.
The reaction was started by the addition of the substrate (in 5 μL containing 1 μCi of [^3H]-L-Arginine+2.5 μM of unlabeled L-Arginine) to the reaction mixture. Total reaction volume is 60 μL.
The reaction was mixed using a vortex mixer and incubate the above reaction mixture at 37° C. in an incubator for 30 minutes.
To stop the reaction, 400 μL of ice-cold Stop Buffer was added at the end of the incubation period.
The reaction was then mixed using a vortex mixer, and the reaction samples were transferred to spin cups, which were centrifuged using a microcentrifuge, at 13,000 rpm for 30 sec. at room temperature.
The spin cups were removed from the holder, 450 μL of eluate (containing the unbound L-citrulline) were transferred to scintillation vials. 3 mL of scintillation fluid were added and the radioactivity was quantified in a liquid scintillation counter.
Data was analyzed using a Sigmoidal dose-response (variable slope) curve to determine the IC50 value of the test compound. Y=Bottom+(Top−Bottom)/(1+10^((Log IC50−X)*Hill Slope))

IC50: 33.5 µM
SMILES: CNCCN1CCSc2cc(NC(=N)c3cccs3)ccc21 [Compound 8, N-(4-(2-(methylamino)ethyl)-3,4-dihydro-2H-benzo[b][1,4]thiazin-7-yl)thiophene-2-carboximidamide]
